Laboratory results: the supplement of paper PMC10307832

What was measured:
Experiment in all cases: relative viability (nuclei count vs DMSO), 5 days (fraction); higher = more cells survive
AZD1208 + Navitoclax = compound: N[C@@H]1CCCN(c2c(/C=C3\SC(=O)NC3=O)cccc2-c2ccccc2)C1 [AZD1208] + CC1(C)CCC(c2ccc(Cl)cc2)=C(CN2CCN(c3ccc(C(=O)NS(=O)(=O)c4ccc(N[C@H](CCN5CCOCC5)CSc5ccccc5)c(S(=O)(=O)C(F)(F)F)c4)cc3)CC2)C1 [Navitoclax] (partner 0.5 µM)
In short: (§1)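 Relative viability was taken as the ratio of nuclei in treated wells to nuclei in vehicle wells. Lung cancer cell lines in 1536-well plates received compounds by pin tool one day after seeding, either one drug alone or a fixed anchor-drug dose plus five library-drug doses (not always all listed) in √10 steps. Nuclei were counted on 4× images after 5 days of treatment, and values are medians of duplicate plates.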

XMD14-99 + Trametinib = compound: CN1CCN(CC1)C2=CC(=C(C=C2)NC3=NC(=C(S3)C(=O)C4=C(C=CC=C4Cl)Cl)N)OC [XMD14-99] + CC(=O)Nc1cccc(-n2c(=O)n(C3CC3)c(=O)c3c(Nc4ccc(I)cc4F)n(C)c(=O)c(C)c32)c1 [Trametinib] (partner 0.02 µM)
In short: as §1

AZD1208 = compound: N[C@@H]1CCCN(c2c(/C=C3\SC(=O)NC3=O)cccc2-c2ccccc2)C1 [AZD1208]
In short: (§2)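 Acceptance criteria were a control CV below 25% and at least one doubling per plate. Lung cancer cell lines in 1536-well plates got five library-drug doses (not always all listed) √10 apart by pinning and were left 5 days with no medium change. Viability divides treated-well nuclei by vehicle-well nuclei and is the median across plates. Nuclei were counted by MetaXpress from 4× Hoechst images.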

XMD14-99 = compound: CN1CCN(CC1)C2=CC(=C(C=C2)NC3=NC(=C(S3)C(=O)C4=C(C=CC=C4Cl)Cl)N)OC [XMD14-99]
In short: as §2

Cell Line	relative viability (AZD1208 + Navitoclax; first compound 0.08 µM)	relative viability (AZD1208 + Navitoclax; first compound 0.253 µM)	relative viability (AZD1208 + Navitoclax; first compound 0.8 µM)	relative viability (AZD1208 + Navitoclax; first compound 2.53 µM)	relative viability (AZD1208 + Navitoclax; first compound 8 µM)	relative viability (XMD14-99 + Trametinib; first compound 0.08 µM)	relative viability (XMD14-99 + Trametinib; first compound 0.8 µM)	relative viability (XMD14-99 + Trametinib; first compound 2.53 µM)	relative viability (XMD14-99 + Trametinib; first compound 8 µM)	relative viability (AZD1208; 0.08 µM)	relative viability (AZD1208; 0.253 µM)	relative viability (AZD1208; 0.8 µM)	relative viability (AZD1208; 2.53 µM)	relative viability (AZD1208; 8 µM)	relative viability (XMD14-99; 0.08 µM)	relative viability (XMD14-99; 0.8 µM)	relative viability (XMD14-99; 2.53 µM)	relative viability (XMD14-99; 8 µM)
SW 1573	0.896	0.948	0.765	0.995	0.717	0.547	0.58	0.74	0.47	0.822	0.899	0.799	0.807	0.696	0.964	0.939	1	0.834
RERF-LC-KJ	1.03	0.908	0.959	0.921	0.662	0.808	0.846	0.76	0.682	0.998	1.03	0.878	0.935	0.746	0.991	0.938	0.903	0.834
EMC-BAC-2	1.17	1.39	1.14	1.17	1.07	0.832	0.716	0.744	0.668	1.23	0.95	0.917	0.949	0.754	1.01	1.03	0.889	0.645
LK-2	0.77	0.523	0.494	0.433	0.347	0.571	0.738	0.706	0.646	0.882	0.718	0.63	0.493	0.42	0.914	1.04	1.09	0.913
NCI-H2228	0.782	0.766	0.713	–	0.51	0.612	0.534	0.431	0.209	0.954	1.19	0.953	0.788	0.84	1.12	0.961	0.891	0.398
NCI-H322M	1.1	1.27	1.2	1.13	1.2	0.491	0.565	0.593	0.521	0.94	0.943	0.943	0.891	1.04	0.994	0.977	0.86	0.762
NCI-H1299	1.1	1.09	1.08	1	1.04	–	–	–	–	1.01	1.06	1.03	1.06	1.06	0.996	0.98	0.941	0.859
LCLC-103H	–	–	–	–	–	0.702	0.716	0.719	0.665	1.02	1.04	0.938	0.773	0.777	0.953	1.02	0.963	0.907
ABC-1	–	–	–	–	–	–	–	–	–	0.965	0.966	0.856	0.923	0.899	0.99	1.03	0.964	0.727
NCI-H661	–	–	–	–	–	0.573	0.598	0.481	0.516	0.993	1.02	1.04	0.981	0.93	0.925	0.948	0.835	0.678
NCI-H1648	–	–	–	–	–	0.613	0.46	0.459	0.466	0.981	1.25	0.921	1.04	1.05	0.845	0.713	0.734	0.454
NCI-H1563	–	–	–	–	–	–	–	–	–	0.962	0.928	0.952	0.956	0.923	0.926	0.999	0.92	0.833
A549	1.24	1.16	1.12	1.18	1.1	–	–	–	–	0.957	0.952	0.868	0.934	0.786	0.955	0.97	0.898	0.726
NCI-H522	–	–	–	–	–	0.783	0.901	0.75	0.85	0.975	0.922	0.816	0.816	0.769	0.891	1.01	1.07	1
NCI-H1623	–	–	–	–	–	–	–	–	–	0.984	0.912	0.764	0.871	0.746	0.959	0.99	1.01	0.804
SW 900	–	–	–	–	–	0.779	0.876	0.752	0.756	0.837	0.989	0.822	1	0.799	0.918	0.976	0.753	0.66
IA-LM	0.812	0.865	0.651	0.621	0.794	–	–	–	–	0.951	0.983	0.855	0.875	0.989	0.947	0.86	0.758	0.472
NCI-H358	–	–	–	–	–	0.118	0.179	0.134	0.127	0.904	0.78	0.798	0.862	0.729	0.959	0.895	0.851	0.57
EBC-1	0.317	0.326	0.297	0.334	0.298	–	–	–	–	1.02	1.12	0.93	0.967	0.957	0.962	0.924	0.842	0.637
